Results published in patent publication US20240307477A1, “COMPOSITION FOR PREVENTING OR TREATING LIVER FIBROSIS INCLUDING SANGUISORBA OFFICINALIS EXTRACT AS ACTIVE INGREDIENT” (KOREA INSTITUTE OF SCIENCE AND TECHNOLOGY, priority 2023, published 2024).

system: human immortalization hepatic stellate cells (human LX-2); experiment: RT-qPCR of liver fibrosis-related gene expression in TGF-β-treated hepatic stellate cells; format: cell-based; conditions: LX-2 cells, 5 ng/mL TGF-β, 24 hours; extract 1, 5 or 10 μg/mL, ziyuglycoside 5 μM; RT-qPCR vs GAPDH
Procedure: As hepatic stellate cells, human immortalization hepatic stellate cells (human LX-2) were given and used. The hepatic stellate cells were cultured in Dulbecco's modified Eagle's medium (DMEM; Invitrogen, US) containing 10% fetal bovine serum (FBS), penicillin (100 U/mL) and streptomycin ([…]) at 37° C. and in a 5% CO2 condition.
To measure the hepatic anti-fibrosis effect of the Sanguisorba officinalis extract (1, 5 or 10 μg/mL) and ziyuglycoside (5 μM) in the LX-2 cells, a real time-quantitative polymerase chain reaction (RT-qPCR) was performed.
First, the hepatic stellate cells were treated with each of the Sanguisorba officinalis extract (1, 5, or 10 μg/mL) and the ziyuglycoside (5 μM) along with 5 ng/mL of a liver fibrosis-inducing material TGF-β and cultured for 24 hours. Afterward, the cells were washed with PBS, total RNA was then extracted according to the manual of an RNA extraction kit (GeneAll RNA isolation kit, Korea), and cDNA was synthesized from the extracted RNA. PCR analysis was performed under user recommended cycling conditions of an analyzer (Applied Biosystems 7900 HT thermal cycler, Applied Biosystems), and to confirm the expression level of each mRNA, PCR was performed using the primers in Table 1 below, and the fold change value for the control was calculated using GAPDH as an endogenous control, and a relative expression level was compared.

**Q.** With `C[C@@H]1CC[C@]2(C(=O)O)CC[C@]3(C)C(=CC[C@@H]4[C@@]5(C)CC[C@H](O[C@@H]6OC[C@H](O)[C@H](O)[C@H]6O)C(C)(C)[C@@H]5CC[C@]43C)[C@@H]2[C@]1(C)O` [ziyuglycoside II] as the molecule, how does the “ACTA2 gene expression increased by TGF-β treatment” value read?
**A.** inhibited

**Q.** And the “COL1A1 gene expression increased by TGF-β treatment” value?
**A.** inhibited

**Q.** What about the “TIMP1 gene expression increased by TGF-β treatment” value of the same molecule?
**A.** inhibited

**Q.** What does the source list for ziyuglycoside?
**A.** ACTA2 gene expression increased by TGF-β treatment: reduced; COL1A1 gene expression increased by TGF-β treatment: reduced; TIMP1 gene expression increased by TGF-β treatment: reduced

**Q.** Which results are given for `C[C@@H]1CC[C@]2(C(=O)O[C@@H]3O[C@H](CO)[C@@H](O)[C@H](O)[C@H]3O)CC[C@]3(C)C(=CC[C@@H]4[C@@]5(C)CC[C@H](O[C@@H]6OC[C@H](O)[C@H](O)[C@H]6O)C(C)(C)[C@@H]5CC[C@]43C)[C@@H]2[C@]1(C)O` [ziyuglycoside I]?
**A.** ACTA2 gene expression increased by TGF-β treatment: inhibited; COL1A1 gene expression increased by TGF-β treatment: inhibited; TIMP1 gene expression increased by TGF-β treatment: inhibited
